Laboratory results reported in paper PMC3348258 (Nature, 2012).
Values joined by “and” are separate entries in the source; they are usually repeats but may differ in a detail not shown here. Equal entries are not always repeated.

What was measured:
open BK channels = details: read-out: blocking affinity / Kd(0) for block of open BK channels; cited from earlier work
[1] = test system: BK α subunits coexpressed with construct D20A; assay: Effect of pore blockers on β3a-mediated tail currents; assay type: cell-based, mSlo1 (mouse) with human β3a N-terminus on human β2; details: 10 μM Ca^2+; TBA 2 or 10 mM; bbTBA 200 and 400 μM
Shaker K^+ channels = details: cited from earlier work

Structure (SMILES)	Kd (open BK channels)	effect on β3a-mediated tail currents [1]	effect on inactivation onset (Shaker K^+ channels)
CCCC[N+](CCCC)(CCCC)CCCC [TBA, tetrabutylammonium]	900 µM and ~900 µM	both peak tail current and tail current time constant were reduced	–
CC[N+](CC)(CC)CC [TEA, tetraethylammonium]	–	–	slow inactivation onset
